The Kinase Knowledgebase extract (Sharma et al. 2016)

Target: PIK3CD (Human) (UniProt O00329)
Assay: Assessment of PIK3CD Kinase Activity

Chain of PIK3CD (Human) (O00329 whole entry, looked up): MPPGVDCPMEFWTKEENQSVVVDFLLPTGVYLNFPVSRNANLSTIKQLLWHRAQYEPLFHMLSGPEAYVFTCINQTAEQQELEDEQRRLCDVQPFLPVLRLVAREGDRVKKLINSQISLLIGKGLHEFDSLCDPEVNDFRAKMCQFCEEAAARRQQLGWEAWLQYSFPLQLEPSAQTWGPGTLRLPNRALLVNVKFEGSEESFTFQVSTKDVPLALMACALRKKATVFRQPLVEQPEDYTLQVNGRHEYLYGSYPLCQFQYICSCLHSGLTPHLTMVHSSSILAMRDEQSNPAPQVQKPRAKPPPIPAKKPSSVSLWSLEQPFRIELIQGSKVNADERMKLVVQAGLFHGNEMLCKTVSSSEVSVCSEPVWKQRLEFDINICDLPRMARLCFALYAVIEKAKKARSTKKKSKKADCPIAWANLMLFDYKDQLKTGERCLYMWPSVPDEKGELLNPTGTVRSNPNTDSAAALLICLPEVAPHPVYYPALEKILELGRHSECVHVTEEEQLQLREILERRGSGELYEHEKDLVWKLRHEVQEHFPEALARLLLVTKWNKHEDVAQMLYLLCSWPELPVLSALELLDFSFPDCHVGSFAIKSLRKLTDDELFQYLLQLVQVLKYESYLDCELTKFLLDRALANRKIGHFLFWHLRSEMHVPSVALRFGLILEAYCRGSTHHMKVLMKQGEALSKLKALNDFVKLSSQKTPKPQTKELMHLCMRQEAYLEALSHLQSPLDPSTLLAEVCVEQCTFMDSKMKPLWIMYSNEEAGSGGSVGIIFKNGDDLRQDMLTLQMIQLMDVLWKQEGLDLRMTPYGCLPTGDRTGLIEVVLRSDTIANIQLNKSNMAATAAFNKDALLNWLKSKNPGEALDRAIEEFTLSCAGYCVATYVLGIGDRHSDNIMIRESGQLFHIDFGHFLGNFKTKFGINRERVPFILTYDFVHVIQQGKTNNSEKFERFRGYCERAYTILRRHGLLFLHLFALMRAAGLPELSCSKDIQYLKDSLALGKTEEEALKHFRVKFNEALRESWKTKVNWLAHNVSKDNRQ

| IC50 | SMILES |
| --- | --- |
| 1.08 nM | CCc1nc2ccccc2n1-c1nc(N2CCOCC2)c2nc(CC3CN(C(C)(C)C(N)=O)C3)n(C)c2n1 |
| 0.61 nM | CCc1nc2ccccc2n1-c1nc(N2CCOCC2)c2nc(C(=O)C3CCN(C(C)(C)C(=O)OC)CC3)n(C)c2n1 |

Target: PIK3CA (human) (UniProt P42336)
Assay: Assessment of PIK3CA Kinase Activity

Chain of PIK3CA (human) (P42336 whole entry, looked up): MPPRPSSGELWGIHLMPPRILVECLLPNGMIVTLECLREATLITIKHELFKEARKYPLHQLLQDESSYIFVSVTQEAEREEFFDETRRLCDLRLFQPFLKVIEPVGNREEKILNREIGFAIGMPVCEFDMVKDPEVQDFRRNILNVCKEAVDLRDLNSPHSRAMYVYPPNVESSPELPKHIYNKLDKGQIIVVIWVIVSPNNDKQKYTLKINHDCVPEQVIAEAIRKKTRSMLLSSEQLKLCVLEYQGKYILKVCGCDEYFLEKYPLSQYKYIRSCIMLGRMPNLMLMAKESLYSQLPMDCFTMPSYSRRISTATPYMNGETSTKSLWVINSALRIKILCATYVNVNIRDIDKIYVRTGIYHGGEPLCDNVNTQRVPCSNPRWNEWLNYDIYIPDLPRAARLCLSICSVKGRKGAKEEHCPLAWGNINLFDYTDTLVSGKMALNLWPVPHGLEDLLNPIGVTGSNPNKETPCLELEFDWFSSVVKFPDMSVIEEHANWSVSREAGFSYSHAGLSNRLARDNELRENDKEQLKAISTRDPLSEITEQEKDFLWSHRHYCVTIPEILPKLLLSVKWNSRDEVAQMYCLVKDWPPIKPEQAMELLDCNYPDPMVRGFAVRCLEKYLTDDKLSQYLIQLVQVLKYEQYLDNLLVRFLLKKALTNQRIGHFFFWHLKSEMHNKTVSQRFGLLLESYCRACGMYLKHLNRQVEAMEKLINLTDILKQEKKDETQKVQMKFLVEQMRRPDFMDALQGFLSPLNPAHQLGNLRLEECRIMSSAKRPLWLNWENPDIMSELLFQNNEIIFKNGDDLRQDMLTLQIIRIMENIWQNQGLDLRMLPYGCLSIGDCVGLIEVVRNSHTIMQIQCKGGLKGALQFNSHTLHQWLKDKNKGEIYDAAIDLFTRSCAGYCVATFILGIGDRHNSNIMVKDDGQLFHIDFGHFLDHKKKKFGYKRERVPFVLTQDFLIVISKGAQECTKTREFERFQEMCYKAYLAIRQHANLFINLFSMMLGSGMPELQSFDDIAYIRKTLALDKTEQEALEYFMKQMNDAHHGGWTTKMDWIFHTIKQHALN

| IC50 | SMILES |
| --- | --- |
| 41.6 nM | CC(C)(C(N)=O)N1CCN(Cc2nc3c(N4CCOCC4)nc(-c4cncc5[nH]ccc45)nc3s2)CC1 |
| 593 nM | CN(C)C1CCN(Cc2cc3nc(-c4ccc(O)c5nccn45)nc(N4CCOCC4)c3s2)CC1 |
| 190 nM | CC(C)c1nc2ccccc2n1-c1nc(N2CCOCC2)c2nc(-c3cccnc3)n(C)c2n1 |
| 245 nM | Cn1c(CN2CCC(C(C)(C)O)CC2)nc2c(N3CCOCC3)nc(-c3cnc(N)c4ccccc34)nc21 |
| 472 nM | Cn1c(CN2CC(C3CCOCC3)C2)nc2c(N3CCOCC3)nc(-n3c(C4CC4)nc4ccccc43)nc21 |
| 207 nM | CN(C)C1CCN(Cc2cc3nc(-n4ccc5cnccc54)nc(N4CCOCC4)c3s2)CC1 |
| 104 nM | CCc1nc2ccccc2n1-c1nc(N2CCOCC2)c2nc(CC3CN(C(C)(C)C(N)=O)C3)n(C)c2n1 |
| 83 nM | CCc1nc2ccccc2n1-c1nc(N2CCOCC2)c2nc(C(=O)C3CCN(C(C)(C)C(=O)OC)CC3)n(C)c2n1 |
| 485 nM | CCc1nc2ccccc2n1-c1nc(N2CCOCC2)c2nc(CCN3CCOCC3(C)C)n(C)c2n1 |
| 82.5 nM | CCc1nc2ccccc2n1-c1nc(N2CCOCC2)c2nc(CC3CN(C4CCS(=O)(=O)CC4)C3)n(C)c2n1 |
| 218 nM | CCc1nc2ccccc2n1-c1nc(N2CCOCC2)c2nc(CN3C[C@@H]4C[C@H]3CN4C(C)(C)CO)n(C)c2n1 |
| 52.2 nM | Cc1c(CN2CCN(C(C)(C)C(N)=O)CC2)sc2c(N3CCOCC3)nc(-c3cncc4[nH]ccc34)nc12 |
| 1200 nM | COC(C)(C)C1CCN(Cc2nc3c(N4CCOCC4)nc(-c4c(C)oc5ccccc45)nc3n2C)CC1 |
| 2790 nM | Cn1c(CN2CCC(C(C)(C)O)CC2)nc2c(N3CCOCC3)nc(-c3n[nH]c4ccccc34)nc21 |
| 175 nM | Cc1nc2ccccc2n1-c1nc(N2CCOCC2)c2oc(CN3CCN(C(C)(C)C(N)=O)CC3)cc2n1 |
| 215 nM | CCc1nc2ccccc2n1-c1nc(N2CCOCC2)c2nc(CN3CCN(C(C)(C)CO)CC3)[nH]c2n1 |
| 729 nM | COc1cccc(-c2nc3c(N4CCOCC4)nc(-n4c(C(C)C)nc5ccccc54)nc3n2C)c1 |
| 5350 nM | c1cc(-c2nc(N3CCOCC3)c3sc(CN4CCC(N5CCOCC5)CC4)cc3n2)c2ccncc2c1 |
| 264 nM | CC(C)c1nc2ccccc2n1-c1nc(N2CCOCC2)c2nc(CN3CCN(C(C)(C)CO)CC3)[nH]c2n1 |
| 1500 nM | CC(C)(C(N)=O)N1CCN(Cc2nc3nc(-c4cccc5nccn45)nc(N4CCOCC4)c3s2)CC1 |
| 132 nM | CCc1nc2ccccc2n1-c1nc(N2CCOCC2)c2nc(CC(=O)N3CCC(C(C)(C)O)CC3)sc2n1 |
